The results in this text go back to patent publication US7795228B2, “Spiroheterocyclic glycosides and methods of use” (Theracos, Inc., priority 2006, dated 2010).

One assay deals with T1, human SGLT1 (Homo sapiens, UniProt P13866).
T1 construct: Full-length human SGLT1 cDNA on pDream2.1 expression vector was obtained from GenScript Corporation; host or cells: COS-7 cells
T1 sequence (P13866 1-664): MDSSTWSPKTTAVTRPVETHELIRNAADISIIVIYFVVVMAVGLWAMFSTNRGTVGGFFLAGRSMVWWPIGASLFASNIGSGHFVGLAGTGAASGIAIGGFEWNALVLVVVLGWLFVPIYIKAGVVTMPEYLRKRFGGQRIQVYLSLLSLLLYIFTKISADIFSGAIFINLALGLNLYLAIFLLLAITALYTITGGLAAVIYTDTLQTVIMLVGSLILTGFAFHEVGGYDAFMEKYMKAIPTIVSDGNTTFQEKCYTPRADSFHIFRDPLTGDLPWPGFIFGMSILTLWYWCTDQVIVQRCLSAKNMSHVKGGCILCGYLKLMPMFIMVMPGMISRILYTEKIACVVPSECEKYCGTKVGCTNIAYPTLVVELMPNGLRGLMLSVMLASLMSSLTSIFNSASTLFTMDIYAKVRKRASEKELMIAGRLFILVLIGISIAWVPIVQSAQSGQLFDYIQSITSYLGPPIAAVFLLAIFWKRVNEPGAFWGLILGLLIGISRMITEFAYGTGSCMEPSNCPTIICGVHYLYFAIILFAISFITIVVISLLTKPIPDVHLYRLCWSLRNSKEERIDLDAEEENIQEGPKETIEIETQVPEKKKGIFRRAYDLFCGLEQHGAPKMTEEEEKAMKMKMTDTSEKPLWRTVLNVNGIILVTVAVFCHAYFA
Nature of the assay: Methyl-α-D-[U-14C]glucopyranoside uptake assay, human SGLT1 expressing cells. In kind it is cell-based. The following applies: COS-7 cells expressing human SGLT1, 2 h incubation. As to the method:
Full-length human SGLT1 cDNA on pDream2.1 expression vector was obtained from GenScript Corporation and propagated in Escherichia coli strain DH5α using Luria-Bertani (LB) medium containing ampicillin. Plasmid DNA was isolated using the QIAGEN Plasmid Midi Kit (QIAGEN Inc.). […] Transfected cells were stored in DMEM containing 10% dimethyl sulfoxide (DMSO) at −80° C.
(§1) Cells expressing SGLT1 or SGLT2 were seeded on 96-well ScintiPlate scintillating plates (PerkinElmer, Inc.) in DMEM containing 10% FBS (1×10^5 cells per well in 100 μl medium) incubated at 37° C. under 5% CO2 for 48 h prior to the assay. Cells were washed twice with 150 μl of either sodium buffer (137 mM NaCl, 5.4 mM KCl, 2.8 mM CaCl2, 1.2 mM MgCl2, 10 mM tris(hydroxymethyl)aminomethane/N-2-hydroxyethylpiperazine-N′-ethanesulfonic acid [Tris/Hepes], pH 7.2) or sodium-free buffer (137 mM N-methyl-glucamine, 5.4 mM KCl, 2.8 mM CaCl2, 1.2 mM MgCl2, 10 mM Tris/Hepes, pH 7.2). Test compound in 50 μl each of sodium or sodium-free buffer containing 40 μCi/ml methyl-α-D-[U-^14C] glucopyranoside (Amersham Biosciences/GE Healthcare), either with (symbols in parentheses) or without (symbols without parentheses) 25% human serum, was added per well of a 96-well plate and incubated at 37° C. with shaking for either 2 h (SGLT1 assay) or 1.5 h (SGLT2 assay). Cells were washed twice with 150 μl of wash buffer (137 mM N-methylglucamine, 10 mM Tris/Hepes, pH 7.2) and methyl-α-D-[U-^14C]glucopyranoside uptake was quantitated using a TopCount scintillation counter (PerkinElmer, Inc.). Sodium-dependent glucopyranoside uptake was measured by subtracting the values obtained with sodium-free buffer from those obtained using sodium buffer (average of triplicate determinations).

A further assay addresses T2, human SGLT2 (Homo sapiens, UniProt P31639).
T2 construct: A full-length cDNA clone expressing human SGLT2 (GenScript Corporation)
T2 sequence (P31639 1-672): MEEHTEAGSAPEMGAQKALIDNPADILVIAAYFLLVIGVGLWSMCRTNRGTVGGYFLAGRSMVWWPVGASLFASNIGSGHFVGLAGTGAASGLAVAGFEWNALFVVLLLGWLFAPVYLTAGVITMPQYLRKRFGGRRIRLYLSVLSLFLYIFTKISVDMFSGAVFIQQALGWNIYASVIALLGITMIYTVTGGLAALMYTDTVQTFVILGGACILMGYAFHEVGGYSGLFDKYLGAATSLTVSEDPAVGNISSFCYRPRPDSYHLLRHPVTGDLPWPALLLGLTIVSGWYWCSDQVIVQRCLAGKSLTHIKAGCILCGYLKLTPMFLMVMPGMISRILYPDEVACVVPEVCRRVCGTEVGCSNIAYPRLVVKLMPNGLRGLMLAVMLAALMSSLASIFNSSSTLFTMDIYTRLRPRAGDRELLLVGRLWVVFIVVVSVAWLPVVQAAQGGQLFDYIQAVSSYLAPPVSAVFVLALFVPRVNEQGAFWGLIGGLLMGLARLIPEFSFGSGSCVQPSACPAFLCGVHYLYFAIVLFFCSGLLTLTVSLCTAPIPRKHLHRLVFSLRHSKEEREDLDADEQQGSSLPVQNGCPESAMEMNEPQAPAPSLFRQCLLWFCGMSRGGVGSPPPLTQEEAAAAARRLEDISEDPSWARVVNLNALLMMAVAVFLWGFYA
In words: Methyl-α-D-[U-14C]glucopyranoside uptake assay, cells stably expressing human SGLT2. In kind it is cell-based. As to conditions: HEK293.ETN cells expressing human SGLT2, 1.5 h incubation.
From the text: A full-length cDNA clone expressing human SGLT2 (GenScript Corporation) was subcloned into Hind III and Not I sites of pEAK15 expression vector. Clones harboring the cDNA inserts were identified by restriction analysis.
Plasmid containing human SGLT2 was linearized with Nsi I and purified by agarose gel electrophoresis. Using Lipofectamine 2000 Transfection Reagent (Invitrogen Corporation), DNA was transfected into HEK293.ETN cells and cultured in Dulbecco's Modified Eagle Medium (DMEM) containing 10% fetal bovine serum (FBS) at 37° C. under 5% CO2 for 24 h. Transfectants were selected in the same growth medium supplemented with puromycin (Invitrogen Corporation) for two weeks. Puromycin-resistant cells were recovered and seeded on a fresh 96-well plate (single cell per well) and cultured in the presence of puromycin until cells became confluent. Puromycin-resistant clones were evaluated for SGLT2 activity in the methyl-α-D-[U-^14C]glucopyranoside uptake assay described below.
as §1

Where [1] appears, read: without human serum (symbols without parentheses).
The mark [2] stands for this setting: with 25% human serum (symbols in parentheses).

Structures are written as SMILES.

`CCc1ccc(Cc2ccc3c(c2)[C@]2(CCO3)O[C@H](CO)[C@@H](O)[C@H](O)[C@H]2O)cc1` [Compound 12, (2′S,3′R,4′S,5′S,6′R)-6-(4-ethylbenzyl)-6′-(hydroxymethyl)-3′,4′,5′,6′-tetrahydrospiro[chroman-4,2′-pyran]-3′,4′,5′-triol]: the IC50 (commonly the concentration that inhibits the measured activity by half) was above 100 µM at human SGLT1 (setting [1]) and below 1 µM on human SGLT2 (setting [1]).
`CCc1ccc(Cc2cc3c(cc2Cl)OCC[C@]32O[C@H](CO)[C@@H](O)[C@H](O)[C@H]2O)cc1` [Compound 20, (2′S,3′R,4′S,5′S,6′R)-7-chloro-6-(4-ethylbenzyl)-6′-(hydroxymethyl)-3′,4′,5′,6′-tetrahydrospiro[chroman-4,2′-pyran]-3′,4′,5′-triol]: the IC50 on human SGLT1 (setting [1]) was 10 to 100 µM; on human SGLT2 (setting [1]), below 1 µM.
Turning to `CCc1ccc(Cc2cc3c(cc2Cl)OC[C@]32O[C@H](CO)[C@@H](O)[C@H](O)[C@H]2O)cc1` [Compound 30, (2′R,3′R,4′S,5′S,6′R)-6-chloro-5-(4-ethylbenzyl)-6′-(hydroxymethyl)-3′,4′,5′,6′-tetrahydro-2H-spiro[benzofuran-3,2′-pyran]-3′,4′,5′-triol], the IC50 on human SGLT1 (setting [2]) was 10 to 100 µM; on human SGLT2 (setting [2]), below 1 µM.
As for `CCc1ccc(Cc2cc3c(cc2Cl)OCCC[C@]32O[C@H](CO)[C@@H](O)[C@H](O)[C@H]2O)cc1` [Compound 38, (2′S,3′R,4′S,5′S,6′R)-8-chloro-7-(4-ethylbenzyl)-6′-(hydroxymethyl)-3,3′,4,4′,5′,6′-hexahydro-2H-spiro[benzo[b]oxepine-5,2′-pyran]-3′,4′,5′-triol], the IC50 is 10 to 100 µM on human SGLT1 (setting [2]) and below 1 µM at human SGLT2 (setting [2]).
Regarding `CCc1ccc(Cc2cc3c(cc2Cl)OC(OC)C[C@]32O[C@H](CO)[C@@H](O)[C@H](O)[C@H]2O)cc1` (stereo partly drawn) [Compound 43, (2′S,3′R,4′S,5′S,6′R)-7-chloro-6-(4-ethylbenzyl)-6′-(hydroxymethyl)-2-methoxy-3′,4′,5′,6′-tetrahydrospiro[chroman-4,2′-pyran]-3′,4′,5′-triol], the IC50 at human SGLT1 (setting [1]) was above 100 µM; at human SGLT2 (setting [1]), below 1 µM.
For `CCc1ccc(Cc2cc3c(cc2Cl)OC(O)C[C@]32O[C@H](CO)[C@@H](O)[C@H](O)[C@H]2O)cc1` (stereo partly drawn) [Compound 44, (2′S,3′R,4′S,5′S,6′R)-7-chloro-6-(4-ethylbenzyl)-6′-(hydroxymethyl)-3′,4′,5′,6′-tetrahydrospiro[chroman-4,2′-pyran]-2,3′,4′,5′-tetraol], in that order: above 100 µM and below 1 µM.
Turning to `CCc1ccc(Cc2cc3c(cc2Cl)OC(C)C[C@]32O[C@H](CO)[C@@H](O)[C@H](O)[C@H]2O)cc1` (stereo partly drawn) [Compound 47, (2′S,3′R,4′S,5′S,6′R)-7-chloro-6-(4-ethylbenzyl)-6′-(hydroxymethyl)-2-methyl-3′,4′,5′,6′-tetrahydrospiro[chroman-4,2′-pyran]-3′,4′,5′-triol], the IC50 at human SGLT1 (setting [2]) was above 100 µM; at human SGLT2 (setting [2]), below 1 µM.
For `CCc1ccc(Cc2cc3c(cc2Cl)OC(C)(CO)C[C@]32O[C@H](CO)[C@@H](O)[C@H](O)[C@H]2O)cc1` (stereo partly drawn) [Compound 52, (2′S,3′R,4′S,5′S,6′R)-7-chloro-6-(4-ethylbenzyl)-2,6′-bis(hydroxymethyl)-2-methyl-3′,4′,5′,6′-tetrahydrospiro[chroman-4,2′-pyran]-3′,4′,5′-triol], in that order: above 100 µM and below 1 µM.
For `CCc1ccc(Cc2cc3c(cc2Cl)OC(C)(C)C[C@]32O[C@H](CO)[C@@H](O)[C@H](O)[C@H]2O)cc1` [Compound 57, (2′S,3′R,4′S,5′S,6′R)-7-chloro-6-(4-ethylbenzyl)-6′-(hydroxymethyl)-2,2-dimethyl-3′,4′,5′,6′-tetrahydrospiro[chroman-4,2′-pyran]-3′,4′,5′-triol], the IC50 is above 100 µM at human SGLT1 (setting [2]) and below 1 µM at human SGLT2 (setting [2]).
